Literature values as cited in PMC9826446 (Journal of Bone and Mineral Research, 2022).

Columns and labels:
[1] = test system: ectopic calcification; conditions: animal models of PXE; ref [1], [7], [19]
[2] = test system: vascular calcification; conditions: patients with PXE, phase 2 trial; ref [27]
[3] = test system: TNAP; conditions: not TNAP‐specific; ref [15], [16]

Row | SMILES | inhibition on TNAP [3] | other results
1 | COc1ccc(Cl)cc1S(=O)(=O)Nc1cncc(C(N)=O)c1 [SBI‐425, 5‐((5‐chloro‐2‐methoxyphenyl)sulfonamido)nicotinamide] |  | anticalcification effects [1]: significant anticalcification effects
2 | CC(O)(P(=O)(O)O)P(=O)(O)O [etidronate] |  | vascular calcification [2]: may reduce vascular calcification
3 | c1ccc([C@H]2CN3CCSC3=N2)cc1 [levamisole] | only weak inhibition | 
4 | Cn1c(=O)c2[nH]cnc2n(C)c1=O [theophylline] | only weak inhibition | 
